Where two headings read alike, the source gives them in different places.

From patent US7825118B2, “Inhibitors of bruton's tyrosine kinase” (Pharmacyclics, Inc., priority 2006, dated 2010) come the findings set out here.

The subject of experiment [1] is MDA-MB-453. Description: Cytotoxicity MDA-MB-453. The conditions noted are these: Homo sapiens, Breast. The format is cell-based.
The subject of experiment [2] is BT-549. Description: Cytotoxicity BT-549. The format is cell-based. The conditions noted are these: Homo sapiens, Breast.
For experiment [3], the system named is Egr-1. Description: Expression of ERK transcriptional target Egr-1. The format is cell-based. The conditions noted are these: 1 uM.
Experiment [4] relates to pERK in DOHH2 cells. Description: Basal pERK levels in unstimulated DOHH2 cells. The format is cell-based. The conditions noted are these: Homo sapiens, DOHH-2, read-out: decrease of pERK levels IC50. From the text: (§1) To identify biomarkers that correlate with response to Compound 4, phosphorylation events in the BCR signal transduction pathway were investigated. […].
. However, when we examined basal phosphorylation levels, we found higher basal phosphorylation in DOHH2 compared to Ramos, with phospho-ERK in particular indicating higher levels of basal or tonic signaling in DOHH2. […]

For experiment [5], the system named is Btk expressing B cell lymphoma cell lines. Description: Panel of nine Btk expressing B cell lymphoma cell lines. The format is cell-based.
The subject of experiment [6] is A549. Description: Cytotoxicity A549. The conditions noted are these: Homo sapiens, Lung. It counts as cell-based.
The test system of experiment [7] is Mino. Description: Cytotoxicity Mino. The conditions noted are these: Homo sapiens, Lymphoma. The format is cell-based.
For experiment [8], the system named is MDA-MB-468. Description: Cytotoxicity MDA-MB-468. The format is cell-based. The conditions noted are these: Homo sapiens, Breast.
Experiment [9] relates to Raji. Description: Cytotoxicity Raji. It counts as cell-based. As to conditions: Homo sapiens, Lymphoma.
For experiment [10], the system named is CRL-8062. Description: Cytotoxicity CRL-8062. As to conditions: Myeloma. The format is cell-based.
For experiment [11], the system named is Ramos. Description: Sensitivity of Ramos cell line. The format is cell-based, human.
Excerpt: as §1

The test system of experiment [12] is DOHH2. Description: Cytotoxicity DOHH2. It counts as cell-based. The conditions noted are these: for GI50: Homo sapiens, DOHH-2, Lymphoma.
The subject of experiment [13] is NCI-H460. Description: Cytotoxicity NCI-H460. It counts as cell-based. As to conditions: Homo sapiens, Lung.
In experiment [14] the test system is SK-BR3. Description: Cytotoxicity SK-BR3. The format is cell-based. As to conditions: Homo sapiens, SK-BR-3; Breast.
For experiment [15], the system named is MDA-MB-361. Description: Cytotoxicity MDA-MB-361. The format is cell-based. The conditions noted are these: Homo sapiens, Breast.
Experiment [16] relates to DHL-6. Description: Cytotoxicity DHL-6. It counts as cell-based. The conditions noted are these: Lymphoma.
Experiment [17] concerns MDA-MB-231. Description: Cytotoxicity MDA-MB-231. The format is cell-based. The conditions noted are these: Homo sapiens, Breast.
The subject of experiment [18] is DLCL2. Description: Cytotoxicity DLCL2. As to conditions: Lymphoma. It counts as cell-based.
Experiment [19] concerns the target Btk (Homo sapiens, UniProt Q06187). Description: Btk acellular kinase assay (TR-FRET). It counts as biochemical.
Experiment [20] has as its target BLK (Homo sapiens, UniProt P51451). Description: Panel of kinases: BLK. It counts as biochemical. As to conditions: Cys: Y.
For experiment [21], the target named is JAK3 (Homo sapiens, UniProt P52333). Description: Panel of kinases: JAK3. It counts as biochemical. The conditions noted are these: Cys: Y.
Experiment [22] addresses ITK (Homo sapiens, UniProt Q08881). Description: Panel of kinases: ITK. It counts as biochemical. As to conditions: Cys: Y.
The subject of experiment [23] is DHL-6 cells. Description: Growth of DHL-6 cells (Alamar Blue, FIG. 3). It counts as cell-based. The conditions noted are these: 3E4 cells/well, complete media, 0.1% DMSO.
The mark [24] stands for this setting: acellular TR-FRET kinase assay, ATP at Km, read-out: Btk IC50.

Btk, sequence (Q06187 whole entry): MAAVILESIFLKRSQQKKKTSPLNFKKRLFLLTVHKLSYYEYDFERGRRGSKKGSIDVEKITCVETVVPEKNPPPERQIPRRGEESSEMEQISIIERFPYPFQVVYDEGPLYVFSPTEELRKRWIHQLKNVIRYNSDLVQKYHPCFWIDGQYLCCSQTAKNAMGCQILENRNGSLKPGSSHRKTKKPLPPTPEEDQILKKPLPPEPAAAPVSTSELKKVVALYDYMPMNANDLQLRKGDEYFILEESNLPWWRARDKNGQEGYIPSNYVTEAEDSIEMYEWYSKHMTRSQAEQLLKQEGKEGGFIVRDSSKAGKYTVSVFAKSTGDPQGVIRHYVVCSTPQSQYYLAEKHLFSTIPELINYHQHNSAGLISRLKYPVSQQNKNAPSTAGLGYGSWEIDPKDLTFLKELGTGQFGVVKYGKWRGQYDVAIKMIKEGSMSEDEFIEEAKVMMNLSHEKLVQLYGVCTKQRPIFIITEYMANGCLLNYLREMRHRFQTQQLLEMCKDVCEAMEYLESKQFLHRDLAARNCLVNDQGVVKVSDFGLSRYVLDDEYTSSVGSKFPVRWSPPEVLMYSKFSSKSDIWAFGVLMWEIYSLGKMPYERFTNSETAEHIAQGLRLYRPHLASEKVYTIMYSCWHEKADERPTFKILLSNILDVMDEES
ITK, sequence (Q08881 whole entry): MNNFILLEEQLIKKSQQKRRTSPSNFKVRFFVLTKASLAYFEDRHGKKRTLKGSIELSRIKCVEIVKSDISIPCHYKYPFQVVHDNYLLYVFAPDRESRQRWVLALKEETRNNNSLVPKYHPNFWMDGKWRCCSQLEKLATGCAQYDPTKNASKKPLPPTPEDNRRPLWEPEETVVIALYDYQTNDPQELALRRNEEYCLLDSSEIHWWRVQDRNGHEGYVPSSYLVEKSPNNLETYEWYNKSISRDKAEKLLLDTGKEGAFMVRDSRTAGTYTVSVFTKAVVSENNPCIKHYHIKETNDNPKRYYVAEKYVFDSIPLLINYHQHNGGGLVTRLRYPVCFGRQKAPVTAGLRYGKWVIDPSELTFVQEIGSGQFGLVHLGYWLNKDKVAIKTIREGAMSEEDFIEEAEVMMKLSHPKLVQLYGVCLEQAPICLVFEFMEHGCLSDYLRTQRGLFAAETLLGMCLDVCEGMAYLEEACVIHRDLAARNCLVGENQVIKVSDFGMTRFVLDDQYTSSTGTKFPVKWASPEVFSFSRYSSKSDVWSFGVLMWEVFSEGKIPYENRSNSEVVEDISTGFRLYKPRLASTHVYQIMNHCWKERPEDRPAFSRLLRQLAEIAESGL
BLK, sequence (P51451 whole entry): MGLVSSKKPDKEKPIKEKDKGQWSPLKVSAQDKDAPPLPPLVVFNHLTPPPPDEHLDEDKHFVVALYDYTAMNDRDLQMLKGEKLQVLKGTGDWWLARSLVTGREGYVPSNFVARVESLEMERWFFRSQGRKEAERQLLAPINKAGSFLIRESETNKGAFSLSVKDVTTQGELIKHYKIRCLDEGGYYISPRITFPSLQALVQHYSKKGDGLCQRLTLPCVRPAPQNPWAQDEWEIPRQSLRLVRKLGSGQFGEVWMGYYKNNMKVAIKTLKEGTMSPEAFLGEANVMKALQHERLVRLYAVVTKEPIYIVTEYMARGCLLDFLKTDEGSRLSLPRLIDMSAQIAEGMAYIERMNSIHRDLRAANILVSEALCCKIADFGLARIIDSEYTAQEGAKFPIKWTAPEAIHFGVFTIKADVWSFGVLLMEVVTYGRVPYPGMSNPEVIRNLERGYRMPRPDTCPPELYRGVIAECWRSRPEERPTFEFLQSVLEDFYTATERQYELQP
JAK3, sequence (P52333 whole entry): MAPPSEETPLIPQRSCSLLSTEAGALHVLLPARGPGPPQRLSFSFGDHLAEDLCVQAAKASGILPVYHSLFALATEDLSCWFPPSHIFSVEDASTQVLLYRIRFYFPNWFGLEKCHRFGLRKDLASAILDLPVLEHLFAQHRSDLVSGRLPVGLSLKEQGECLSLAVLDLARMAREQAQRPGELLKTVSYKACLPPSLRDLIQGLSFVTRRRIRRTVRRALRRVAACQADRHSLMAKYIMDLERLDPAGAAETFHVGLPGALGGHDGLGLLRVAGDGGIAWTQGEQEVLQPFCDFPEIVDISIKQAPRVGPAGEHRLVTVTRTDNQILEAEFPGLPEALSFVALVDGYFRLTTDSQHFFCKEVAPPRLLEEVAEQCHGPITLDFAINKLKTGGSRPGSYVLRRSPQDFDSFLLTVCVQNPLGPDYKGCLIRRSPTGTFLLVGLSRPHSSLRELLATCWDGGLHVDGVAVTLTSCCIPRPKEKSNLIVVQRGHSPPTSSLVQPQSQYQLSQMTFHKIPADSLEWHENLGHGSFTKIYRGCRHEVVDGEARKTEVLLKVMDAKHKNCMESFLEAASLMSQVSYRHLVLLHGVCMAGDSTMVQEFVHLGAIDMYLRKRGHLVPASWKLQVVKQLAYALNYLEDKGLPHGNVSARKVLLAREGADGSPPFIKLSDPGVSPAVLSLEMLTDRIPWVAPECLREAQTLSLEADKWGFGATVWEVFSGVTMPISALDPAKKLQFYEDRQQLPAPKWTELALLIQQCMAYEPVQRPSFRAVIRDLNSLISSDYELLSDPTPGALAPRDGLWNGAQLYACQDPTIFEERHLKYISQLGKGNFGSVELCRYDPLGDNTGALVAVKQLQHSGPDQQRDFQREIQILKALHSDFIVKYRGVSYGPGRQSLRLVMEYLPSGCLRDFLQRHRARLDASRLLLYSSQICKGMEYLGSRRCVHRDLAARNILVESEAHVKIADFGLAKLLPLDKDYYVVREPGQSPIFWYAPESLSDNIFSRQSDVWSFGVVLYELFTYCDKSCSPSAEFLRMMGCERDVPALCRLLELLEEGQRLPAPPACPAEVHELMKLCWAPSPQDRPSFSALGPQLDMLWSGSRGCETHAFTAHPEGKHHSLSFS

As for `C=CC(=O)N1CCCC(n2nc(-c3ccc(Oc4ccccc4)cc3)c3c(N)ncnc32)C1` (centres unmarked) [Compound 4, 1-(3-(4-amino-3-(4-phenoxyphenyl)-1H-pyrazolo[3,4-d]pyrimidin-1-yl)piperidin-1-yl)prop-2-en-1-one], the GI50 in [1] is below 0.001 µM; in experiment [2], above 10 µM; in experiment [5] (B-cell, 5 of seven lines with high basal pERK, read-out: GI50 of sensitive cell lines), below 1300 nM; in experiment [6], above 10 µM; in experiment [7] it was 1.9 µM; in [8], above 10 µM. Moreover, the GI50 was above 10 µM in [9]; above 10 µM in experiment [10]; 0.77 µM in experiment [12]; above 10 µM in experiment [13]; 0.44 µM in experiment [14]; above 10 µM in experiment [15]. In addition, the values for the GI50 in experiment [16], in experiment [17] and in [18] were 0.75 µM, above 10 µM and 1.3 µM, respectively. Further, the “time within which Egr-1 expression is reduced” value in [3] is at most 1 h. Also, the IC50 in experiment [4] was below 10 nM. Moreover, in experiment [5] (two cell lines with low pERK levels), the “response of cell lines with low pERK levels” value is “resistant”. In addition, in experiment [11], the “sensitivity of cell line Ramos” value is reported as “resistant”. Moreover, in experiment [12], the “sensitivity of cell line DOHH2” value is given as “sensitive”.

With `C/C=C/C(=O)N1CCCC(n2nc(-c3ccc(Oc4ccccc4)cc3)c3c(N)ncnc32)C1` (centres unmarked) [Compound 5, (E)-1-(3-(4-amino-3-(4-phenoxyphenyl)-1H-pyrazolo[3,4-d]pyrimidin-1-yl)piperidin-1-yl)but-2-en-1-one], the “fold less potent than 4” value in experiment [19] (Btk potency relative to compound 4) was determined as 28 fold. For the same molecule, in experiment [19] (setting [24]), the IC50 was 20 nM.

As for `C#CC(=O)N1CCCC(n2nc(-c3ccc(Oc4ccccc4)cc3)c3c(N)ncnc32)C1` (centres unmarked) [Compound 8, 1-(3-(4-amino-3-(4-phenoxyphenyl)-1H-pyrazolo[3,4-d]pyrimidin-1-yl)piperidin-1-yl)prop-2-yn-1-one], half-maximal inhibition in experiment [19] (IC50) was put at 0.72 nM.

With `C=CC(=O)N1CCC(n2nc(-c3ccc(Oc4ccccc4)cc3)c3c(N)ncnc32)CC1` [Compound 9, 1-(4-(4-amino-3-(4-phenoxyphenyl)-1H-pyrazolo[3,4-d]pyrimidin-1-yl)piperidin-1-yl)prop-2-en-1-one], the IC50 in [19] (setting [24]) was 3.6 nM.

With `C=CC(=O)N[C@H]1CC[C@@H](n2nc(-c3ccc(Oc4ccccc4)cc3)c3c(N)ncnc32)CC1` [Compound 10, N-((1s,4s)-4-(4-amino-3-(4-phenoxyphenyl)-1H-pyrazolo[3,4-d]pyrimidin-1-yl)cyclohexyl)acrylamide], the GI50 in experiment [1] was 0.54 µM; in [2], 2.79 µM; in experiment [6], 3.13 µM; in experiment [7], 0.12 µM; in [8], above 10 µM; in [9], above 10 µM. Besides, the GI50 in [10] is above 10 µM; in experiment [12], 0.011 µM; in experiment [13], above 10 µM; in experiment [14], 0.24 µM; in experiment [15], above 10 µM; in experiment [16], 0.009 µM. The GI50 in experiment [17] was above 10 µM; in experiment [18], 4.82 µM. Also, the IC50 in [20] was 0.17 nM; in experiment [21] it was 8.28 µM; in experiment [22], 910 nM.

For `C=CC(=O)N1CC[C@@H](n2nc(-c3ccc(Oc4ccccc4)cc3)c3c(N)ncnc32)C1` [Compound 11, 1-((R)-3-(4-amino-3-(4-phenoxyphenyl)-1H-pyrazolo[3,4-d]pyrimidin-1-yl)pyrrolidin-1-yl)prop-2-en-1-one], in [19] (setting [24]), the half-inhibitory concentration (IC50) is 1.6 nM.

Regarding `C=CC(=O)N1CC[C@H](n2nc(-c3ccc(Oc4ccccc4)cc3)c3c(N)ncnc32)C1` [Compound 12, 1-((S)-3-(4-amino-3-(4-phenoxyphenyl)-1H-pyrazolo[3,4-d]pyrimidin-1-yl)pyrrolidin-1-yl)prop-2-en-1-one], the IC50 in experiment [19] (setting [24]) was found to be 1.9 nM.

For `CN(C)C/C=C/C(=O)N1CCC[C@@H](n2nc(-c3ccc(Oc4ccccc4)cc3)c3c(N)ncnc32)C1` [Compound 15, (E)-1-(3-(4-amino-3-(4-phenoxyphenyl)-1H-pyrazolo[3,4-d]pyrimidin-1-yl)piperidin-1-yl)-4-(dimethylamino)but-2-en-1-one], in experiment [23], the “growth of DHL-6 cells” value is given as “inhibit growth”.
